{"source": "patent US6737383B1", "about": "“Herbicidal oxadiazolidines” (priority 1999, dated 2004)", "key": {"winter wheat [1]": {"system": "winter wheat", "assay": "Test E winter wheat", "assay_type": "in vivo, Triticum aestivum", "settings": "Preemergence"}, "blackgrass": {"system": "blackgrass", "assay": "Test E blackgrass", "assay_type": "in vivo, Alopecurus myosuroides", "settings": "Preemergence"}, "rice": {"system": "rice", "assay": "Test B flood test rice", "assay_type": "in vivo, Oryza sativa", "in_short": "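Flood test on plants grown to the 2-leaf stage; treated plants kept in greenhouse twelve to sixteen days, then visually rated against controls on a 0 (no effect) to 10 (complete control) scale.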"}, "crabgrass": {"system": "crabgrass", "assay": "Test B pre/postemergence crabgrass", "assay_type": "in vivo, Digitaria sanguinalis", "in_short": "(§1)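 Herbicidal effect was estimated by eye on a ten-point control scale after plants spent twelve to sixteen days in a greenhouse following soil or foliar treatment. Foliar sprays targeted plants at one to four leaves; all doses were formulated in a non-phytotoxic solvent with surfactant.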"}, "corn": {"system": "corn", "assay": "Test B pre/postemergence corn", "assay_type": "in vivo, Zea mays", "in_short": "as §1"}, "wild oat": {"system": "wild oat", "assay": "Test E wild oat", "assay_type": "in vivo, Avena fatua", "settings": "Preemergence, 0 to 100 scale where 0 is no effect and 100 is complete control"}, "winter wheat [2]": {"system": "winter wheat", "assay": "Test E winter wheat", "assay_type": "in vivo, Triticum aestivum", "settings": "Postemergence", "protocol": "[…] All plant species were grown using normal greenhouse practices. Crop and weed species include annual bluegrass (Poa annua), blackgrass (Alopecurus myosuroides), black nightshade (Solanum nigra), chickweed (Stellaria media), common poppy (Papaver rhoeas), deadnettle (Lamium amplexicaule), downy brome (Bromus tectorum), field violet (Viola arvensis), galium (Galium aparine), green foxtail (Setaria viridis), Italian ryegrass (Lolium multiflorum), jointed goatgrass (Aegilops cylindrica), kochia (Kochia scoparia), lambsquarters (Chenopodium album), littleseed canarygrass (Phalaris minor), rape (Brassica napus), redroot pigweed (Amaranthus retroflexus), Russian thistle (Salsola kali), scentless chamomile (Matricaria inodora), spring barley (Hordeum vulgare), sugar beet (Beta vulgaris), sunflower (Helianthus annuus), ivyleaf speedwell (Veronica hederaefolia), spring wheat (Triticum aestivum), winter wheat (Triticum aestivum), wild buckwheat (Polygonum convolvulus), wild mustard (Sinapis arvensis), wild oat (Avena fatua), windgrass (Apera spica-venti) and winter barley (Hordeum vulgare).\nTreated plants and untreated controls were maintained in a greenhouse for approximately 21 to 28 days, after which all treated plants were compared to untreated controls and visually evaluated. […] A dash response (-) means no test result."}, "green foxtail": {"system": "green foxtail", "assay": "Test E green foxtail", "assay_type": "in vivo, Setaria viridis", "settings": "Preemergence"}, "Italian ryegrass": {"system": "Italian ryegrass", "assay": "Test E Italian ryegrass", "assay_type": "in vivo, Lolium multiflorum", "settings": "Preemergence"}, "winter barley": {"system": "winter barley", "assay": "Test E winter barley", "assay_type": "in vivo, Hordeum vulgare", "settings": "Preemergence"}, "velvetleaf": {"system": "velvetleaf", "assay": "Test B pre/postemergence velvetleaf", "assay_type": "in vivo, Abutilon theophrasti", "in_short": "as §1"}, "[3]": {"settings": "Rate 500 g/ha, 0 to 100 scale where 0 is no effect and 100 is complete control"}, "[4]": {"settings": "Rate 1000 g/ha, 0 to 100 scale where 0 is no effect and 100 is complete control"}, "[5]": {"settings": "Postemergence, Rate 62 g/ha, scale 0 to 10, 0 is no effect, 10 is complete control"}, "[6]": {"settings": "Postemergence, Rate 250 g/ha, scale 0 to 10, 0 no effect, 10 complete control"}, "[7]": {"settings": "Preemergence, Rate 62 g/ha, scale 0 to 10 (0 no effect, 10 complete control)"}, "[8]": {"settings": "Preemergence, Rate 125 g/ha, scale 0 to 10 (0 no effect, 10 complete control)"}, "[9]": {"settings": "Preemergence, Rate 250 g/ha, scale of 0 to 10 where 0 is no effect and 10 is complete control"}, "[10]": {"settings": "Preemergence, Rate 500 g/ha, scale 0 (no effect) to 10 (complete control)"}, "[11]": {"settings": "Rate 125 g/ha, Postemergence, scale 0 to 10, 0 no effect, 10 complete control"}, "[12]": {"settings": "Rate 500 g/ha, Postemergence, scale 0 to 10, 0 no effect, 10 complete control"}}}
{"smiles": "Cc1ccccc1-n1c(=O)on(C(=O)N(c2cc(F)cc(F)c2)C(C)C)c1=O", "note": "[Compound 67]", "values": [{"measurement": "Plant response rating, Wheat (winter)", "setting": "winter wheat [1]; Rate 250 g/ha, 0 to 100 scale", "value": 10}, {"measurement": "Plant response rating, Wheat (winter)", "setting": "winter wheat [1]; [3]", "value": 10}, {"measurement": "Plant response rating, Wheat (winter)", "setting": "winter wheat [1]; [4]", "value": 20}, {"measurement": "Plant response rating, Blackgrass", "setting": "blackgrass; Rate 250 g/ha, 0 to 100 scale", "value": 10}, {"measurement": "Plant response rating, Blackgrass", "setting": "blackgrass; [3]", "value": 20}, {"measurement": "Plant response rating, Blackgrass", "setting": "blackgrass; [4]", "value": 40}, {"measurement": "Rice plant response rating", "setting": "rice; [5]", "value": 0}, {"measurement": "Rice plant response rating", "setting": "rice; Rate 125 g/ha, Postemergence section (flood test species), scale 0 to 10, 0 no effect, 10 complete control", "value": 0}, {"measurement": "Rice plant response rating", "setting": "rice; Rate 500 g/ha, listed under Postemergence (flood test species), scale 0 to 10, 0 no effect, 10 complete control", "value": 0}, {"measurement": "Rice plant response rating", "setting": "rice; flood test, listed under Postemergence, Rate 250 g/ha, scale 0 to 10, 0 no effect, 10 complete control", "value": 0}, {"measurement": "Crabgrass plant response rating", "setting": "crabgrass; [5]", "value": 0}, {"measurement": "Crabgrass plant response rating", "setting": "crabgrass; [6]", "value": 0}, {"measurement": "Crabgrass plant response rating", "setting": "crabgrass; [7]", "value": 2}, {"measurement": "Plant response rating, Crabgrass", "setting": "crabgrass; [8]", "value": 4}, {"measurement": "Plant response rating, Crabgrass", "setting": "crabgrass; [9]", "value": 4}, {"measurement": "Crabgrass plant response rating", "setting": "crabgrass; [10]", "value": 7}, {"measurement": "Crabgrass plant response rating", "setting": "crabgrass; [11]", "value": 0}, {"measurement": "Crabgrass plant response rating", "setting": "crabgrass; [12]", "value": 0}, {"measurement": "Corn plant response rating", "setting": "corn; [5]", "value": 0}, {"measurement": "Corn plant response rating", "setting": "corn; [6]", "value": 0}, {"measurement": "Corn plant response rating", "setting": "corn; [7]", "value": 0}, {"measurement": "Plant response rating, Corn", "setting": "corn; [8]", "value": 0}, {"measurement": "Plant response rating, Corn", "setting": "corn; [9]", "value": 0}, {"measurement": "Corn plant response rating", "setting": "corn; [10]", "value": 0}, {"measurement": "Corn plant response rating", "setting": "corn; [11]", "value": 0}, {"measurement": "Corn plant response rating", "setting": "corn; [12]", "value": 0}, {"measurement": "Plant response rating, Wild oat", "setting": "wild oat; Rate 500 g/ha", "value": 40}, {"measurement": "Plant response rating, Wild oat", "setting": "wild oat; Rate 1000 g/ha", "value": 50}, {"measurement": "Plant response rating, Wheat (winter)", "setting": "winter wheat [2]; Rate 250 g/ha, 0 to 100 scale (0 no effect, 100 complete control)", "value": 20}, {"measurement": "Plant response rating, Wheat (winter)", "setting": "winter wheat [2]; Rate 1000 g/ha, 0 to 100 scale, 0 is no effect and 100 is complete control", "value": 40}, {"measurement": "Plant response rating, Wheat (winter)", "setting": "winter wheat [2]; Rate 500 g/ha, 0 to 100 scale, 0 no effect, 100 complete control", "value": 30}, {"measurement": "Plant response rating, Green foxtail", "setting": "green foxtail; Rate 250 g/ha, 0 to 100 scale", "value": 30}, {"measurement": "Plant response rating, Green foxtail", "setting": "green foxtail; [3]", "value": 55}, {"measurement": "Plant response rating, Green foxtail", "setting": "green foxtail; [4]", "value": 60}, {"measurement": "Plant response rating, I. Ryegrass", "setting": "Italian ryegrass; Rate 250 g/ha, 0 to 100 scale", "value": 40}, {"measurement": "Plant response rating, I. Ryegrass", "setting": "Italian ryegrass; [3]", "value": 30}, {"measurement": "Plant response rating, I. Ryegrass", "setting": "Italian ryegrass; [4]", "value": 50}, {"measurement": "Plant response rating, Barley (winter)", "setting": "winter barley; Rate 250 g/ha, 0 to 100 scale", "value": 20}, {"measurement": "Plant response rating, Barley (winter)", "setting": "winter barley; [3]", "value": 40}, {"measurement": "Plant response rating, Barley (winter)", "setting": "winter barley; [4]", "value": 40}, {"measurement": "Velvetleaf plant response rating", "setting": "velvetleaf; [5]", "value": 0}, {"measurement": "Velvetleaf plant response rating", "setting": "velvetleaf; [6]", "value": 0}, {"measurement": "Velvetleaf plant response rating", "setting": "velvetleaf; [7]", "value": 0}, {"measurement": "Plant response rating, Velvetleaf", "setting": "velvetleaf; [8]", "value": 0}, {"measurement": "Plant response rating, Velvetleaf", "setting": "velvetleaf; [9]", "value": 0}, {"measurement": "Velvetleaf plant response rating", "setting": "velvetleaf; [10]", "value": 0}, {"measurement": "Velvetleaf plant response rating", "setting": "velvetleaf; [11]", "value": 0}, {"measurement": "Velvetleaf plant response rating", "setting": "velvetleaf; [12]", "value": 0}]}
